Measured values reported in patent US7781393B2, “Methods for inhibiting tumor cell growth” (Dana-Farber Cancer Institute, Inc., priority 2004, dated 2010).

Columns and labels:
Assay type in all cases: cell-based, human
[1] = test system: MM cells, prostate cancer cells, SK-N-MC sarcoma cells; test: Sensitization of tumor cells to other anti-cancer therapies in vitro; settings: MM cells to doxorubicin, melphalan, dexamethasone, TRAIL/Apo2L, PS-341, SK-N-MC to Fas ligation
Procedure: The ability of IGF-1R inhibitors to sensitize tumor cells to other anti-cancer therapies in vitro was determined.

[2] = test system: 58 hematologic and solid tumor cell lines; test: MTT colorimetric survival assay, panel of hematologic and solid tumor cell lines; settings: all cell lines; 0-10 μM for 72 hours
INA-6 MM cells = test: MTT assay of responsiveness to IL-6; settings: co-treatment 500 nM, serum, 72 hours
Procedure: (§1) Cell survival of IGF-1R inhibitor-treated cells was examined using the 3-(4,5-Dimethylthiazol-2-yl)-2,5-Diphenyltetrazolium Bromide (MTT) calorimetric assay. […] At the end of each treatment, cells were incubated with 1 mg/ml MTT for 4 hours at 37° C.; a mixture of isopropanol and 1N HCl (23:2, v/v) was then added under vigorous pipetting to dissolve the formazan crystals. Dye absorbance (A) in viable cells was measured at 570 nm, with 630 nm as a reference wavelength. Cell survival was estimated as a percentage of the value of untreated controls. All experiments were repeated at least three times, and each experimental condition was repeated at least in quadruplicate wells in each experiment.

[3] = test system: PC-3 prostate cancer cells; test: MTT assay of responsiveness to IL-6; settings: co-treatment 500 nM, serum, 72 hours
Procedure: as §1

MM-1S cells [4] = test: Immunoblotting of anti-apoptotic signaling cascades; settings: 500 nM, serum-containing medium
Procedure: Flow cytometric analyses for IGF-1R, and IGF-2R were performed as previously described on a EPICS-XL-MCL flow cytometer (Beckman Coulter). Previously described protocols were applied for immunoblotting analyses; TRAP telomerase activity assay; 20S proteasome chymotryptic activity assay; DNA binding activity ELISAs for quantitative assessments of NF-κB and HIF-1a transcriptional activities. VEGF and IGF-1 ELISAs were performed according to manufacturer's instructions (R&D Systems, Minneapolis, Minn.).

MM cells = test: Gene expression and proteomic profiling of IGF-1R inhibition; settings: expression profiling, proteomic analyses, confirmatory assays
Procedure: Subsequent analysis of scanned image output files were analyzed with Affymetrix GeneChip Microarray Analysis Suite 5.0 software (Affymetrix), normalized and analyzed by hierarchical clustering, functional clustering and relevance network algorithms, as in previous studies. High-throughput global proteomic analysis of the signaling state of IGF-1R-inhibitor-treated MM cells was performed by multiplex-immunoblotting arrays using the KPKS-1.0 and KPSS-1.0 platforms, as previously described (Mitsiades C S et al. Semin Oncol. April 2003; 30(2): 156-60 and Mitsiades N et al. Blood. Mar. 15, 2003; 101(6): 2377-80).
Total RNA was extracted and purified with the Qiagen RNeasy kit (Qiagen, San Diego, Calif.). Five micrograms of total RNA was used in the first-strand cDNA synthesis with T7-d(T)24 primer ([…]-(dT)24) (SEQ ID NO: 1) and Superscript II (GIBCO-BRL, Rockville, Md.). The second-strand cDNA synthesis was carried out at 16° C. by adding Escherichia coli DNA ligase, E. coli DNA polymerase I, and RNase H to the reaction, followed by T4 DNA polymerase to blunt the ends of newly synthesized cDNA. The cDNA was purified through phenol/chloroform and ethanol precipitation. […] Scanned image output files were visually examined for major chip defects and hybridization artifacts and then analyzed with Affymetrix GeneChip® (array) Microarray Analysis Suite 5.0 software (Affymetrix). […]

MM-1S cells [5] = test: In vitro sensitization of MM-1S cells to anti-cancer drugs; settings: ADW-742 750 nM or α-IR3 2 μg/ml for final 24 hours
Procedure: Cells were cultured in the presence of 10% FBS, and results are expressed as mean ±SD of 3 independent experiments.
as §1

MM cell lines = test: MTT colorimetric survival assay, serum-stimulated MM cell lines
Procedure: as §1

CD138+ MM cells = test: Flow cytometric analysis of unpurified bone marrow mononuclear cells; settings: 500 nM, 72 hours, 20% serum; BM stromal cells not suppressed

Nc1ncnc2c1c(-c1cccc(OCc3ccccc3)c1)cn2[C@H]1C[C@H](CN2CCCC2)C1 [ADW-742, trans-5-(3-benzyloxy-phenyl)-7-(3-pyrrolidin-1-ylmethyl-cyclobutyl)-7H-pyrrolo[2,3-d]pyrimidin-4-ylamine]
sensitivity of tumor cells to other anti-cancer therapies [1]: increases the sensitivity
inhibition of serum-induced cell growth [2]: Dose-dependent inhibition
responsiveness to IL-6 (INA-6 MM cells): abrogated
responsiveness to IL-6 [3]: abrogated
Akt, MEK1/2 and FKHRL-1 phosphorylation (MM-1S cells [4]): early suppression
intracellular levels of Akt, Bmx, IKK-α and RANKL (MM-1S cells [4]): decrease
proliferative/anti-apoptotic molecular events associated with exposure to IGF-1 or serum (MM cells): suppressed
sensitivity of MM-1S cells to dexamethasone (MM-1S cells [5]; dexamethasone 0.1 μM 72 hrs): enhances the sensitivity
sensitivity of MM-1S cells to doxorubicin (MM-1S cells [5]; doxorubicin 50 ng/mL 48 hrs): enhance the sensitivity
sensitivity of MM-1S cells to melphalan (MM-1S cells [5]; melphalan 1 μM 48 hrs): enhance the sensitivity
IC50 (MM cell lines; Homo sapiens, values generally in this range, 0-10 μM for 72 hours, read-out: IC50, serum-induced cell growth of MM cell lines): 0.1 to 0.5 µM
activity against MM cell lines with known resistance to conventional or investigational anti-cancer agents (MM cell lines; also primary tumor cells from MM patients with multi-drug resistant disease): active
CD138+ population of malignant cells (CD138+ MM cells): significant suppression
